Patent publication US10851402B2, “Method for in vitro detection and monitoring of a disease by measuring disease-associated protease activity in extracellular vesicles” (Friedrich-Alexander-Universitaet Erlangen-Nuernberg, priority 2013, dated 2020)

Legend:
TACE = target: T1, TACE (Homo sapiens, UniProt P78536); experiment: GFP-proTNF-RFP cleavage and endogenous TACE activity in Nef/mNAKC transfected 293T cells; assay type: cell-based; conditions: exposure of cultured 293T cells to TAPI
T1 construct: endogenous in cells; host or cells: 293T cells transfected with Nef/mNAKC (TACE itself not transfected)
Protocol: Transfections into 293T cells and protein assays. Transient transfections into 293T cells as well as immunoprecipitations and immunoblots were performed as described previously (Baur et al., 1997; Witte et al., 2004; Wolf et al., 2008). In general 20 μg of cellular protein lysate and 10 μg of EV lysate were loaded per lane. The latter corresponded to the secretion from 2-4 mio 293T cells within 48 h. Endogenous TACE activity was measured using SensoLyte®520 TACE (α-Secretase) Activity Assay Kit from AnaSpec, according to the manufacturer's procedures. Cell lysates were generated from 293T cells 24 h after tranfection of Nef/mNAKC. […]
While TACE seemed to be activated by Nef/mNAKC, it was not clear whether and where the protease was functionally active. […] We constructed a GFP-proTNF-RFP fusion protein (G-proTNF-R; FIG. 5A), expecting that the full-length protein would give a yellow signal, which upon TACE-mediated cleavage would mature into prodomain-associated green (GFP) and TNFα-associated red (RFP) fluorescence. […]
In 293T cells the transfected G-proTNF-R construct gave a double positive (GFP/RFP) signal in FACS and a yellow staining in confocal images (FIGS. 5B and E). […] In addition, we measured an increased activity of endogenous TACE in Nef/mNAKC transfected 293T cells using a commercial, substrate-based activity assay (FIG. 20B). […]

resting PBMC = experiment: TNFα secretion of resting PBMC after incubation with EV; assay type: cell-based; conditions: EV-producing cells incubated with the inhibitor; EV incubated with resting PBMC (6 hours)
Protocol: PBMC stimulation with EV and measurement of Cytokine Secretion. PBMC ([…]) were added to each well of a 96-well-U-bottom plate in a total volume of 200 μl (RPMI). 10 μl of exosome preparation from transfected cells (corresponding to 2×10^6 cells or one 10 cm dish) were added per well and […]. When indicated 10 μl PHA (positive control), 50 μM TAPI-1 (Peptides International), or 10 μM U0126 (MAPK-Inhibitor, Promega) were used. Cytokines in the supernatant (200 μl) were measured via the CBA (Cytometric Bead Array) Human Soluble Protein Flex Set System (BD Biosciences).
For confirmation we incubated EV with resting PBMC (6 hours) and measured TNFα release.

T1 sequence (P78536 215-824): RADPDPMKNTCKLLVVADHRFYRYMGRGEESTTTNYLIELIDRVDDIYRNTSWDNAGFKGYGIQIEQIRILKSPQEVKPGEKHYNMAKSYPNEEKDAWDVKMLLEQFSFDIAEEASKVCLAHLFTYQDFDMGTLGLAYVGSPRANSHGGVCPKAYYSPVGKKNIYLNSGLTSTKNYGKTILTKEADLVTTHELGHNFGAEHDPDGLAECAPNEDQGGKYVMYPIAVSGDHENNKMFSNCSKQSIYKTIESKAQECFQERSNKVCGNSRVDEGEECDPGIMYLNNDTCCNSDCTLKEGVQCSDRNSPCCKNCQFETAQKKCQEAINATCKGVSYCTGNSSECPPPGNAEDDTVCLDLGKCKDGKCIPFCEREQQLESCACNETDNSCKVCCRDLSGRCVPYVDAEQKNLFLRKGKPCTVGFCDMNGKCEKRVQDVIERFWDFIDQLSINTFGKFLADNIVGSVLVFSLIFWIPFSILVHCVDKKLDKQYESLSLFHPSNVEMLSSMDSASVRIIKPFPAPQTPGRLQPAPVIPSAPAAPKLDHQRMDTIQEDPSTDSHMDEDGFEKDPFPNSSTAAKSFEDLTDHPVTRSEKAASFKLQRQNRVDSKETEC

Row | SMILES | effect of Nef/mNAKC and TACE on G-proTNF-R cleavage and endogenous TACE activity (TACE) | TNFα release (resting PBMC)
1 | CC(C)C[C@H](CC(=O)NO)C(=O)N[C@@H](Cc1ccc2ccccc2c1)C(=O)N[C@@H](C)C(=O)NCCN [TAPI] | reversed | significantly reduced
2 | Oc1ccc2ccccc2c1SSc1c(O)ccc2ccccc12 [IPA-3] | – | significantly reduced
3 | N#CC(=C(/N)Sc1ccccc1N)/C(C#N)=C(\N)Sc1ccccc1N [U0126] | – | significantly reduced
